From patent US20230149383A1, “QUINOLINE COMPOUNDS FOR TREATING LUNG, LIVER, AND KIDNEY DISEASES, DISORDERS, OR CONDITIONS” (Aldeyra Therapeutics, Inc., priority 2020, published 2023)
Entries after “also recorded” stand apart in the source; their conditions may differ. Read-outs that look alike come from different tables or passages of the source.

Experiments:
[1] = tested on: delayed rectifier potassium current; test: In vitro inhibition of the delayed rectifier potassium current; type: cell-based
[2] = Phase 1 trial, pharmacokinetics in healthy volunteers; type: in vivo, human; settings: for Cmax / AUC / half-life: human, in vivo; for AUC: read-out: 0 to 12 hour area under the curve (AUCtau)
Description: Healthy volunteers were dosed with 600 mg of compound I-1 BID for 10 days in the top (highest) dose cohort. […] The 0 to 12 hour area under the curve (AUCtau) was 5710 h*ng/mL (61.5% CV) on Day 1 and 6,800 h*ng/mL (37.9% CV) on Day 10.

free MDA = test: Phase 1 trial, plasma biomarkers in healthy volunteers; type: in vivo, human; settings: vs placebo
rat NAFLD model [3] = test: 12-week choline deficient high fat diet rat study (NAFLD model); type: in vivo; settings: for NAS score: 7 week group
Text: NAFLD is diagnosed in the US as 3 million new cases each year. NASH is included in the NAFLD diagnosis, as it is the easiest to ascertain in a subject. NAFLD activity score (NAS) is scored as 0-2 not diagnostic, 3-4 ranges from not diagnostic/borderline/positive NASH, and 5-8 diagnostic of NASH; the NAS scoring system includes a composite of […] semi-quantitative features: steatosis (0-3), lobular inflammation (0-2), hepatocellular ballooning (0-2), and fibrosis (0-4). To analyze the effect of compound I-1 on NAFLD, NAS was analyzed in rats treated with vehicle or various doses of compound I-1 (100 mg/kg, 125 mg/kg was compared to escalation 30/60/100 mg/kg and 50/75/100 mg/kg BID, respectively in animals fed a choline deficient, high fat diet for 7 weeks (vehicle vs. 100 mg/kg vs 30/60/100 mg/kg) and 12 weeks (vehicle vs. 125 mg/kg vs 50/75/100 mg/kg). Plasma was collected at 1, 2, 3, 6, 8, 10, and 12 weeks and tested for cytokines and ALT, AST, Triglycerides, Cholesterol, and tBilirubin (measures of liver function). At 12 weeks the livers were collected and gene expression studies, immunohistochemistry, and hydroxyproline.

[4] = tested on: STAM mouse model (NASH/HCC); test: STAM mouse model (NASH/HCC); type: in vivo
Text: The STAM™ model is a model that recapitulates the same disease progression as human NASH/HCC. In this model, male C57BL/6 mice aged two days are given a single dose of streptozotocin to reduce insulin secretory capacity. When the mice turn four weeks of age they start a high-fat diet feeding. This model has a background of late type 2 diabetes which progresses into fatty liver, NASH, fibrosis and consequently liver cancer (HCC). Compared to other NASH-HCC model mice, the disease progresses in a relatively short period of time, and liver cancer is developed in 100% of animals at 20 weeks of age. The model is widely used in NASH research, with more than 40 papers and 70 international conferences published using data from the STAM™ model so far. STAM™ model is able to reproduce many of the pathological features of human NASH. For example: ballooning degeneration of cells, a characteristic pathological feature of human NASH; burned-out NASH, in which lipid droplets decrease as fibrosis progresses; progression of fibrosis occurring around the central vein; a mild rise in ALT (a liver injury marker); increase in NASH markers such as CK-18; increase in human HCC markers such as glutamine synthase, glypican-3 and AFP have been observed.
In a STAM mouse model (NASH/HCC), animals at birth are given a low dose of STZ (200 ug) and then at 3 to 4 weeks these animals are fed a high fat diet. In the progression of the animal model, at 5 weeks fatty liver is evident, 7 weeks NASH is evident, 9 weeks fibrosis is evident, and at 10 weeks nodules are evident and necropsy is performed. In this study, three groups vehicle (0.5% methylcellulose) alone, BID (200 mg/kg in vehicle, BID=twice a day), and QID (200 mg/kg in vehicle, QID=[…]), dosing began at 4 weeks and continued to week ten of the animal model.

rat NAFLD model [5] = test: 12-week choline deficient high fat diet rat study (NAFLD model); type: in vivo; settings: 11 Week Groups (Day 84)
[6] = after high-fat meal on Day 10, 600 mg BID
[7] = plasma, 7 week and 12 week groups, vs vehicle
[8] = 200 mg/kg in 0.5% methylcellulose, BID and QID groups, week 4 to 10

potential to inhibit the delayed rectifier potassium current [1]: very low potential
accumulation of the drug ([2]; across all cohorts): Little to no accumulation
correlation of Cmax and AUC with dose ([2]; as dose increased): linear correlation
increase in clearance ([2]; between Day 1 and Day 10): no significant increase in clearance
Cmax ([2]; 600 mg, 600 mg BID, Day 1): 1920 ng/mL
AUC ([2]; 600 mg, 600 mg BID, Day 1): 5710 ng·h/mL
half-life ([2]; 600 mg, 600 mg BID, Day 1, read-out: half-life (converted)): 3.98 h
Cmax ([2]; 600 mg, 600 mg BID, Day 10): 1460 ng/mL
AUC ([2]; 600 mg, 600 mg BID, Day 10): 6800 ng·h/mL
half-life ([2]; 600 mg, 600 mg BID, Day 10, read-out: half-life (converted)): 4.56 h
half-life ([2]; multiple day exposures, across cohorts, read-out: half-life (t1/2), mean values): 3.07 to 6.2 h
cyp autoinduction ([2]; over the course of 10 days): no cyp autoinduction was observed
SMILES: CC(C)(O)c1nc2ccccc2cc1N [I-1]
free MDA levels in plasma (free MDA; 600 mg BID over 10 days): decrease in free MDA levels was observed
levels of HDL (free MDA; [6]): statistically higher
levels of free fatty acids (free MDA; [6]): statistically lower
liver fibrosis (picrosirius red histopathology) (rat NAFLD model [3]; 7 week and 12 week groups): trended to have reduced
liver inflammation (hematoxylin eosin histopathology) (rat NAFLD model [3]; 7 week and 12 week groups): trended to have reduced
NAS score (rat NAFLD model [3]; 100 mg/kg, vs vehicle): statistical significant reduction
NAS score (rat NAFLD model [3]; 30/60/100 mg/kg escalation): reduced
MCP expression levels (rat NAFLD model [3]; 12 week group, vs vehicle): remained similar to vehicle
MIP expression levels (rat NAFLD model [3]; 12 week group, vs vehicle): reduction
Rantes expression levels (rat NAFLD model [3]; 12 week group, vs vehicle): remained similar to vehicle
cholesterol (rat NAFLD model [3]; [7]): trended at lower values than vehicle
triglycerides (rat NAFLD model [3]; [7]): trended at lower values than vehicle
hepatic fibrosis [4, 8]: significantly reduced; also recorded: significant reduction
hepatic triglycerides [4, 8]: significantly reduced; also recorded: significant reduction
body weight gain ([4]; 200 mg/kg in methylcellulose, BID and QID (FIG. 10: QD or BID), vs vehicle): statistically significant reduction
NAS scores (rat NAFLD model [5]): lower
